Experimental data from patent US20230277553A1, “THERAPEUTIC COMPOSITION OF CURE-PRO COMPOUNDS FOR TARGETED DEGRADATION OF BET DOMAIN PROTEINS, AND METHODS OF MAKING AND USAGE” (CORNELL UNIVERSITY, priority 2020, published 2023).
“Also recorded” adds a separate entry of the source.

Legend:
Format in all cases: cell-based
[1] = target: T1, BRD4 (Homo sapiens, UniProt O60885); experiment: CURE-PRO-mediated BRD4 degradation with MDM2 ligands, WES (ProteinSimple), HCT116 cells; parameters: endogenous in cells; conditions: HCT116, 24 h, WES; for BRD4 degradation, in combination with MDM2 ligand 8313: 1:1 with 8313, 1-10 μM each; for BRD4 degradation, in combination with MDM2 ligand 8314: 1:1 with 8314, 1-10 μM each
Procedure: (§1) All cell lines were purchased from ATCC or DSMZ and grown at 37° C. with 5% CO2. Human HeLa cells were cultured in complete growth medium (Dulbecco's modified Eagle's medium (DMEM) supplemented with 10% FBS); MCF7 cells were cultured in complete growth medium (Dulbecco's modified Eagle's medium (DMEM) supplemented with 10% FBS and 0.01 mg/ml human recombinant insulin (Sigma Aldrich); Namalwa and MOLM-13 cells were cultured in complete growth medium (RPMI 1640 medium supplemented with 10% FBS); MV-4-11 were cultured in complete growth medium (Iscove's Modified Dulbecco's medium, supplemented with 10% FBS); HCT116 cells were cultured in complete growth medium (McCoy's 5a Medium supplemented with 10% FBS). For cellular degradation of BRD4 studies, cells were seeded in a 12-well plate at 70-80% confluency, allowed to attach overnight, and incubated with the indicated compounds for the indicated time. When indicated, a 15-minute pretreatment with 10 μM pomalidomide, 10 μM VHL298, 10 μM Nutlin3a, 1 μM MG-132 or 1 μM Carfilzomib was performed before the addition of CURE-PROs. For washout studies, after CURE-PRO treatment, media was aspirated and incubated with complete medium for the indicated time before lysis.
WES Simple analysis was performed on WES system (ProteinSimple-Biotechne) according to the manufacturer's instructions. Total protein concentrations of cell lysates were determined by the Pierce BCA kit (Thermo Fisher). 3 μL of 0.3 μg/μL of the protein lysate was loaded onto a 12- to 230-kDa WES assay plate (ProteinSimple) where 300 nL sample was withdrawn through a capillary, subjected to electrophoretic separation of proteins by size, and followed by the simultaneous, HRP-based detection of proteins using the Anti-Rabbit Detection Module (Proteinsimple: #DM-001). The electropherograms were checked then the automatic peak detection was manually corrected if it was required.
HCT116 cells (3×10^6) were treated for 24 hours with the compounds solubilized in DMSO. Compounds were added at 1 μM-10 μM each. Standardized protein samples were electrophoresed and imaged as described in the WES ProteinSimple section above. FIGS. 59, 60, and 61 depict the concentration-dependence of CURE-PRO-mediated BRD4 degradation using MDM2 ligands.
HCT116 cells (3×10^6) were treated for 24 hours with the compounds solubilized in DMSO. Compounds were added at 1 μM-10 μM each. Standardized protein samples were electrophoresed and imaged as described in the WES ProteinSimple section above. FIGS. 62 and 63 depict the concentration-dependence of CURE-PRO-mediated BRD4 degradation using MDM2 ligands.
HCT116 cells (3×10^6) were treated for 24 hours with the compounds solubilized in DMSO. CURE-PRO monomers were added at 10 μM each and the proteasomal inhibitors at 1 μM. Standardized protein samples were electrophoresed and imaged as described in the WES ProteinSimple section above. FIG. 68 depicts the dependence of the proteasome for CURE-PRO-mediated BRD4 degradation.

[2] = target: T1, BRD4; experiment: Summary of BRD4 degradation by CURE-PRO pairs, estimated from Western Blot or WES (Proteinsimple); parameters: endogenous in cells; conditions: for Degradation of BRD4 in combination with CRBN ligand [drawing 371]: second drawing (8047); for Degradation of BRD4 in combination with CRBN ligand [drawing 407]: Table 4, aryl-boronic acid-containing CRBN ligand, first drawing (by text: 8048)
Excerpt: A black check mark indicates efficacy of 30% to 70% or higher protein degradation.

[3] = target: T1, BRD4; experiment: CURE-PRO-mediated BRD4 degradation, Western blot, HeLa cells; parameters: endogenous in cells; host or cells: HeLa; conditions: 24 h; for BRD4 degradation, BRD ligand alone: BRD monomer alone; for BRD4 degradation, co-treatment with CRBN ligand 8048: 1:1 with 8048, 1-10 μM each; for BRD4 degradation, co-treatment with CRBN ligand 8049: 1:1 with 8049, 1-10 μM each
Procedure: as §1
Anti-BRD4 (13440, 1:1,000 dilution for Western Blot and 1:25 dilution for ProteinSimple); Anti-BRD2 (5848 1:1,000 dilution for Western Blot and 1:25 dilution for ProteinSimple); β-Actin (3700, 1:2,000 dilution for Western Blot), β-Actin (4970, 1:50 dilution for ProteinSimple) anti-mouse IgG-HRP, and anti-rabbit IgG-HRP antibodies were purchased Cell Signaling Technology. Anti-GAPDH (600-401-A33, 1:100 dilution for ProteinSimple) was purchased from Rockland Immunochemicals, Inc. Anti-BRD3 (sc-81202, 1:200 dilution for Western Blot) was purchased from Santa Cruz Biotechnology.
HeLa, MCF7, or HCT116 cells (2.5-3×10^6) were treated for 24 hours with the indicated compounds solubilized in DMSO. The cells were washed in ice-cold PBS and were then lysed in RIPA lysis buffer (150 mM NaCl, 5 mM EDTA, 1% NP-40, 0.5% sodium deoxycholate, 0.1% SDS, 50 mM Tris, pH 8.0.) with Roche protease inhibitor complete cocktail and phosphatase inhibitors (10 mM sodium fluoride, 10 mM sodium pyrophosphate, 1 mM sodium orthovanadate and 20 mM β-glycerophosphate). The total protein concentrations were determined by Bradford Protein Assay and 10-20 μg of protein was loaded onto 4-15% Tris-Glycine gradient gels (Biorad). After standard gel electrophoresis, the separated proteins were transferred to PVDF membrane by wet transfer. The immunoblots were then blocked for 1 hour in 5% skim milk in TBST or 5% BSA in TBST, according to manufacturer's instructions, before an overnight incubation at 4° C. with indicated antibodies and membranes. Membranes were then incubated with the appropriate horseradish peroxidase-conjugated secondary antibodies (1:5,000 dilution) for 1 h at room temperature and the bands were visualized using the Clarity Max Western ECL Substrate (Biorad) and the ChemiDoc Imaging System (Biorad). Signal was detected with ECL Western Blotting Substrate (Pierce) and X-ray film processed with a Konica SRX-101 X-ray film processor or captured by Bio-Rad's Chemidoc Imaging system.
HeLa cells (2.5×106) were treated for 24 hours with the sample compounds solubilized in DMSO. Compounds were added at 1-10 μM each. Standardized protein samples were electrophoresed and imaged as described in the immunoblotting description above. FIGS. 6-18 depicts the CURE-PRO-mediated BRD4 degradation for BRD monomers (JQ1 derivatives comprising of catechol linkers), and CRBN ligands, 8048 and 8049 (pomalidomide derivatives comprising boronic acid linkers) combined in a 1:1 ratio.
HeLa cells (2.5×106) were treated for 24 hours with the compounds solubilized in DMSO. The compounds were added at 10 μM each. Standardized protein samples were electrophoresed and imaged as described in the immunoblotting section above. […]

Structure (SMILES) | BRD4 degradation, in combination with MDM2 ligand 8313 [1] | BRD4 degradation, in combination with MDM2 ligand 8314 [1] | BRD4 degradation, BRD ligand alone ([3]; Western blot) | Degradation of BRD4 in combination with CRBN ligand [drawing 371] ([2]; Table 1, CRBN ligand) | Degradation of BRD4 in combination with CRBN ligand [drawing 407] [2] | BRD4 degradation, co-treatment with CRBN ligand 8048 ([3]; Western blot) | BRD4 degradation, co-treatment with CRBN ligand 8049 ([3]; Western blot) | also measured
COc1ccc2c(c1)C(c1ccc(Cl)cc1)=N[C@@H](CC(=O)NCCCCCNC(=O)c1cccc(B(O)O)c1)c1nnc(C)n1-2 [BRD-E8] | had no effect on BRD4 protein levels | caused partial loss of the BRD4 protein; also recorded: Degradation is observed | no change in expression | – | – | – | – | Degradation of BRD4 in combination with CRBN ligand [drawing 372] ([2]; Table 1, CRBN ligand, third drawing (8066)): ✓ (A black check mark indicates efficacy of 30% to 70% or higher protein degradation); Degradation of BRD4 in combination with CRBN ligand [drawing 370] ([2]; Table 1, aromatic 1,2-diol- or hindered cis-1,2-diol-containing CRBN ligand, first drawing (8046)): ✓ (A black check mark indicates efficacy of 30% to 70% or higher protein degradation); Concentration at which BRD4 degradation is observed, co-dosed with 8046 ([3]; 1:1 with 8046): 1 µM; BRD4 degradation, co-treatment with CRBN ligand 8046 ([3]; 1:1 with 8046, 10 μM each, Western blot): causes degradation of BRD4; also recorded: Degradation is noted; Concentration at which BRD4 degradation is observed, co-dosed with 8046 ([3]; 1:1 with 8046, tested 1 nM-1 μM each): 0.1 µM; BRD4 degradation, co-treatment with CRBN ligand 8066 ([3]; 1:1 with 8066, 10 μM each (BRD-E10: 10 and 100 μM), Western blot): causes degradation of BRD4; also recorded: Degradation is noted
COc1ccc2c(c1)C(c1ccc(Cl)cc1)=N[C@@H](CC(=O)NCCc1ccc(B(O)O)cc1)c1nnc(C)n1-2 [BRD-E14, (4-(2-(2-((4S)-6-(4-chlorophenyl)-8-methoxy-1-methyl-4H-benzo[f][1,2,4]triazolo[4,3-a][1,4]diazepin-4-yl)acetamido)ethyl)phenyl)boronic acid] | – | caused partial loss of the BRD4 protein; also recorded: Degradation is observed | – | ✓ (A black check mark indicates efficacy of 30% to 70% or higher protein degradation) | – | – | – | Degradation of BRD4 in combination with VHL ligand [drawing 397] ([2]; Table 3, aromatic 1,2-diol-containing VHL ligand, second drawing (8305)): ✓ (A black check mark indicates efficacy of 30% to 70% or higher protein degradation); BRD4 degradation, co-treatment with CRBN ligand 8047 ([3]; 1:1 with 8047, 10 μM each, Western blot): causes degradation of BRD4; also recorded: Degradation is noted
CCNC(=O)C[C@@H]1N=C(c2ccc(Cl)cc2)c2cc(OCCNC(=O)c3cccc(B(O)O)c3)ccc2-n2c(C)nnc21 [BRD-E21, (3-((2-(((4S)-6-(4-chlorophenyl)-4-(2-(ethylamino)-2-oxoethyl)-1-methyl-4H-benzo[f][1,2,4]triazolo[4,3-a][1,4]diazepin-8-yl)oxy)ethyl)carbamoyl)phenyl)boronic acid] | had no effect on BRD4 protein levels | caused partial loss of the BRD4 protein; also recorded: Degradation is observed | no change in expression | ✓ (A black check mark indicates efficacy of 30% to 70% or higher protein degradation) | – | – | – | Concentration from which BRD4 degradation is observed, co-dosed with 8047 ([3]; 1:1 with 8047, tested 1 nM-1 μM each): ≥ 10 nM
COc1ccc2c(c1)C(c1ccc(Cl)cc1)=N[C@@H](CC(=O)NCCOCCOCCOCCOCCNC(=O)c1ccc(O)c(O)c1)c1nnc(C)n1-2 [BRD-N69] | – | – | no degradation of BRD4 | – | ✓ (A black check mark indicates efficacy of 30% to 70% or higher protein degradation) | causes degradation of BRD4; also recorded: Degradation is noted | no evidence of BRD4 degradation | –
CCNC(=O)C[C@@H]1N=C(c2ccc(Cl)cc2)c2cc(OCCOCCOCCOCCOCCOCCNC(=O)c3ccc(O)c(O)c3)ccc2-n2c(C)nnc21 [BRD-N70, N-(17-(((4S)-6-(4-chlorophenyl)-4-(2-(ethylamino)-2-oxoethyl)-1-methyl-4H-benzo[f][1,2,4]triazolo[4,3-a][1,4]diazepin-8-yl)oxy)-3,6,9,12,15-pentaoxaheptadecyl)-3,4-dihydroxybenzamide] | – | – | – | – | ✓ (A black check mark indicates efficacy of 30% to 70% or higher protein degradation) | causes degradation of BRD4; also recorded: Degradation is noted | no evidence of BRD4 degradation | –
CCNC(=O)C[C@@H]1N=C(c2ccc(Cl)cc2)c2cc(OCCOCCOCCOCCOCCOCCNC(=O)c3cccc(O)c3O)ccc2-n2c(C)nnc21 [BRD-N71, N-(17-(((4S)-6-(4-chlorophenyl)-4-(2-(ethylamino)-2-oxoethyl)-1-methyl-4H-benzo[f][1,2,4]triazolo[4,3-a][1,4]diazepin-8-yl)oxy)-3,6,9,12,15-pentaoxaheptadecyl)-2,3-dihydroxybenzamide] | – | – | no degradation of BRD4 | – | ✓ (A black check mark indicates efficacy of 30% to 70% or higher protein degradation) | causes degradation of BRD4; also recorded: Some selectivity for BRD-N71 and 8048 is noted | no evidence of BRD4 degradation | Degradation of BRD4 in combination with MDM2 ligand [drawing 424] ([2]; Table 5, aryl-boronic acid-containing MDM2 ligand, second drawing (8312)): ✓ (A black check mark indicates efficacy of 30% to 70% or higher protein degradation)
